Assay [1] has as its target Human α2δ-1 Subunit of Cav2.2 Calcium Channel (Homo sapiens, UniProt P54289). As to the kind of experiment: Binding assay to human α2δ-1 subunit of Cav2.2 calcium channel ([3H]-Gabapentin). Conditions: human α2δ-1 enriched membranes, 15 nM [3H]-Gabapentin, read-out: Ki(nM) alpha2delta Hum. The procedure: Binding Assay to Human α2δ-1 Subunit of Cav2.2 Calcium Channel.
Human α2δ-1 enriched membranes (2.5 μg) were incubated with 15 nM of radiolabeled [3H]-Gabapentin in assay buffer containing Hepes-KOH 10 mM, pH 7.4.
NSB (non specific binding) was measured by adding 10 μM pregabalin. The binding of the test compound was measured in five different concentrations. After 60 min incubation at 27° C., binding reaction was terminated by filtering through Multiscreen GF/C (Millipore) presoaked in 0.5% polyethyleneimine in Vacuum Manifold Station, followed by 3 washes with ice-cold filtration buffer containing 50 mM Tris-HCl, pH 7.4.
(§1) Filter plates were dried at 60° C. for 1 hour and 30 μl of scintillation cocktail were added to each well before radioactivity reading.
(§2) Readings were performed in a Trilux 1450 Microbeta radioactive counter (Perkin Elmer).

Assay [2] has as its target Human Norepinephrine Transporter (NET) (Homo sapiens, UniProt P23975). Kind of assay: Binding assay to human norepinephrine transporter (NET) ([3H]-Nisoxetin). Conditions: Table 2 (dual compounds); human NET enriched membranes, 5 nM [3H]-Nisoxetin; read-out: Ki(nM) NET Hum. The procedure: Binding Assay to Human Norepinephrine Transporter (NET).
Human norepinephrine transporter (NET) enriched membranes (5 μg) were incubated with 5 nM of radiolabeled [3H]-Nisoxetin in assay buffer containing 50 mM Tris-HCl, 120 mM NaCl, 5 mM KCl, pH 7.4.
NSB (non specific binding) was measured by adding 10 μM desipramine. The binding of the test compound was measured in five different concentrations. After 60 min incubation at 4° C., binding reaction was terminated by filtering through Multiscreen GF/C (Millipore) presoaked in 0.5% polyethyleneimine in Vacuum Manifold Station, followed by 3 washes with ice-cold filtration buffer containing 50 mM Tris-HCl, 0.9% NaCl, pH 7.4.
as §1, §2

Read-outs that look alike come from different tables or passages of the source.

Sequence of Human Norepinephrine Transporter (NET) (P23975 whole entry): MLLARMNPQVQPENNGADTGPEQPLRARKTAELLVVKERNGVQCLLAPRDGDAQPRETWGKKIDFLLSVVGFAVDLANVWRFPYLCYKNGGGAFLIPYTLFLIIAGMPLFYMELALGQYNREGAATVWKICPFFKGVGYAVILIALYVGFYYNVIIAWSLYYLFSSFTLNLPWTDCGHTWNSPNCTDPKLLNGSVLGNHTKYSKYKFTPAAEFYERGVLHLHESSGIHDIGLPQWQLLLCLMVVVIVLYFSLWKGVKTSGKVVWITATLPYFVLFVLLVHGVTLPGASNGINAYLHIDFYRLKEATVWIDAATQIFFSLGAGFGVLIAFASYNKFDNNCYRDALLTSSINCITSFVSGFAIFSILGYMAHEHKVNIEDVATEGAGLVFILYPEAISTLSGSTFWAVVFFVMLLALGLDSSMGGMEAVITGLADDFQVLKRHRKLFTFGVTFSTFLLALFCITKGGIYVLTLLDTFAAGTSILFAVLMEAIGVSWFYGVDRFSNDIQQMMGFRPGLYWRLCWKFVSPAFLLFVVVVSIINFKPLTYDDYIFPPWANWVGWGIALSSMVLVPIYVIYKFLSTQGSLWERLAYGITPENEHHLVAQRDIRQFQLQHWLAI
Sequence of Human α2δ-1 Subunit of Cav2.2 Calcium Channel (P54289 25-1103): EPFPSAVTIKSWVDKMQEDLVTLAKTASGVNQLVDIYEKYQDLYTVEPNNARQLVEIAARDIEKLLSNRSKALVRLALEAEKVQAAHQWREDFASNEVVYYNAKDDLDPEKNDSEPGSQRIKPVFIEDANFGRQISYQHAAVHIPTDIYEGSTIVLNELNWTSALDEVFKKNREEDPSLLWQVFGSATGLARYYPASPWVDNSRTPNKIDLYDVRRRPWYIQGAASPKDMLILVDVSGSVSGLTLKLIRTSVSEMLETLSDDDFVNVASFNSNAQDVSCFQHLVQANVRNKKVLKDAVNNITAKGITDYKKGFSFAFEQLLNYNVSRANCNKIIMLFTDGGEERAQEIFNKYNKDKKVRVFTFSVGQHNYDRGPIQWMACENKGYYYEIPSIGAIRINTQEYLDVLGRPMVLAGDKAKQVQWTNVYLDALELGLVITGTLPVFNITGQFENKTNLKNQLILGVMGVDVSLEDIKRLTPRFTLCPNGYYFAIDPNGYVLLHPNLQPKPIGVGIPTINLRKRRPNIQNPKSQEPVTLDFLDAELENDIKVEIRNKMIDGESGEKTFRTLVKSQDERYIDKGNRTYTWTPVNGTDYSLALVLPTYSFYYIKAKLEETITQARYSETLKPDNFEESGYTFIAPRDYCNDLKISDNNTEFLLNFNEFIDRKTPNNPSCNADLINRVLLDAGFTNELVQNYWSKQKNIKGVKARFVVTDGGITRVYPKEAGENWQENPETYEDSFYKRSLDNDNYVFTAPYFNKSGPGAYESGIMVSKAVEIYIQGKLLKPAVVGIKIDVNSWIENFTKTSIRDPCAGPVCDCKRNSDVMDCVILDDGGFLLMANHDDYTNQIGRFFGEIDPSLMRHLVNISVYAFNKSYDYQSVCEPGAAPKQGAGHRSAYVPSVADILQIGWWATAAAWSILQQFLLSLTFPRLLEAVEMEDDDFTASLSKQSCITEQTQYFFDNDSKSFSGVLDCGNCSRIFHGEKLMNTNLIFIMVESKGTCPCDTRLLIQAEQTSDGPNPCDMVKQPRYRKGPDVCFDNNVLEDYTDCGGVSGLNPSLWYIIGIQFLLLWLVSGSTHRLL

Regarding `CNCCC(Oc1cccc(CNCc2ccccc2)c1)c1cccs1` (centres unmarked) [Example 2, 3-(3-((Benzylamino)methyl)phenoxy)-N-methyl-3-(thiophen-2-yl)propan-1-amine], the Ki in assay [1] (Table 1) fell in the range of 500 to 3000 nM; in assay [1] (Table 2 (dual compounds)) it was 500 to 3000 nM; in assay [2] it was 100 to 500 nM.

Take `CNCCC(Oc1cccc(CN(C)Cc2ccccc2)c1)c1cccs1` (centres unmarked) [Example 6, 3-(3-((Benzyl(methyl)amino)methyl)phenoxy)-N-methyl-3-(thiophen-2-yl)propan-1-amine]: the Ki in assay [1] (Table 1) lay in the range of 100 to 500 nM; in assay [1] (Table 2 (dual compounds)), 100 to 500 nM; in assay [2], 500 to 1000 nM.

In the case of `CNCCC(Oc1cccc(C(=O)Nc2ccccc2)c1)c1ccccc1` (centres unmarked) [Example 13, 3-(3-(Methylamino)-1-phenylpropoxy)-N-phenylbenzamide], the figures for the Ki in assay [1] (Table 1), in assay [1] (Table 2 (dual compounds)) and in assay [2] were not below 3000 nM, not below 3000 nM and 500 to 1000 nM, respectively.

For the compound `CNCCC(Oc1cccc(C(=O)Nc2cccc(-c3nnc(C)o3)c2)c1)c1ccccc1` (centres unmarked) [Example 14, N-(3-(5-methyl-1,3,4-oxadiazol-2-yl)phenyl)-3-(3-(methylamino)-1-phenylpropoxy)benzamide], the Ki in assay [1] (Table 1) is not below 3000 nM; in assay [1] (Table 2 (dual compounds)), not below 3000 nM; in assay [2], 100 to 500 nM.

Take `CNCCC(Oc1cccc(C(=O)Nc2cccnc2)c1)c1ccccc1` (centres unmarked) [Example 15, 3-(3-(Methylamino)-1-phenylpropoxy)-N-(pyridin-3-yl)benzamide]: the Ki in assay [1] (Table 1) was not below 3000 nM; in assay [1] (Table 2 (dual compounds)), not below 3000 nM; in assay [2] it was 100 to 500 nM.

Turning to `CNCCC(Oc1cccc(C(=O)NCc2ccccc2)c1)c1ccccc1` (centres unmarked) [Example 17, N-benzyl-3-(3-(methylamino)-1-phenylpropoxy)benzamide], the Ki in assay [1] (Table 1) is not below 3000 nM; in assay [1] (Table 2 (dual compounds)) it was not below 3000 nM; in assay [2], 500 to 1000 nM.

`CNCCC(Oc1cccc(C(=O)NCc2ccccn2)c1)c1ccccc1` (centres unmarked) [Example 18, 3-(3-(Methylamino)-1-phenylpropoxy)-N-(pyridin-2-ylmethyl)benzamide]: the values for the Ki in assay [1] (Table 1), in assay [1] (Table 2 (dual compounds)) and in assay [2] were not below 3000 nM, not below 3000 nM and 500 to 1000 nM, respectively.

With `CNCCNC(=O)c1cccc(OC(CCNC)c2ccccc2)c1` (centres unmarked) [Example 20, 3-(3-(Methylamino)-1-phenylpropoxy)-N-(2-(methylamino)ethyl)benzamide], the Ki in assay [1] (Table 1) lay within 500 to 3000 nM; in assay [1] (Table 2 (dual compounds)), 500 to 3000 nM; in assay [2], 500 to 1000 nM.

Consider `CNCCC(Oc1cccc(C(=O)NC2CCN(C)CC2)c1)c1ccccc1` (centres unmarked) [Example 22, 3-(3-(Methylamino)-1-phenylpropoxy)-N-(1-methylpiperidin-4-yl)benzamide], for which the Ki in assay [1] (Table 1) is 500 to 3000 nM; in assay [1] (Table 2 (dual compounds)), 500 to 3000 nM; in assay [2] it was not below 1000 nM.

Regarding `CNCCC(Oc1cccc(N(C)C(=O)c2cccc(CN)c2)c1)c1ccccc1` (centres unmarked) [Example 27, 3-(Aminomethyl)-N-methyl-N-(3-(3-(methylamino)-1-phenylpropoxy)phenyl)benzamide], the Ki in assay [1] (Table 1) was not below 3000 nM; in assay [1] (Table 2 (dual compounds)), not below 3000 nM; in assay [2] it was 500 to 1000 nM.

Turning to `CNCCC(Oc1cccc(N(C)C(=O)CCCN)c1)c1ccccc1` (centres unmarked) [Example 28, 4-Amino-N-methyl-N-(3-(3-(methylamino)-1-phenylpropoxy)phenyl)butanamide], the Ki was not below 3000 nM in assay [1] (Table 1), not below 3000 nM in assay [1] (Table 2 (dual compounds)) and 500 to 1000 nM in assay [2].

Consider `CCNc1ncc(C(=O)N(C)c2cccc(COC(CCNC)c3cccs3)c2)c(N2CCCC2)n1` (centres unmarked) [Example 38, 2-(Ethylamino)-N-methyl-N-(3-((3-(methylamino)-1-(thiophen-2-yl)propoxy)methyl)phenyl)-4-(pyrrolidin-1-yl)pyrimidine-5-carboxamide], for which the figures for the Ki in assay [1] (Table 1), in assay [1] (Table 2 (dual compounds)) and in assay [2] were 500 to 3000 nM, 500 to 3000 nM and 500 to 1000 nM, respectively.

Turning to `CNCCC(OCc1cccc(NC(=O)c2ccccc2)c1)c1ccccc1` (centres unmarked) [Example 39, N-(3-((3-(methylamino)-1-phenylpropoxy)methyl)phenyl)benzamide], the Ki in assay [1] (Table 1) was not below 3000 nM; in assay [1] (Table 2 (dual compounds)), not below 3000 nM; in assay [2], 500 to 1000 nM.

As for `CNCCC(OCc1cccc(NC(=O)c2cnc(OC)nc2)c1)c1ccccc1` (centres unmarked) [Example 41, 2-Methoxy-N-(3-((3-(methylamino)-1-phenylpropoxy)methyl)phenyl)pyrimidine-5-carboxamide], the Ki in assay [1] (Table 1) was not below 3000 nM; in assay [1] (Table 2 (dual compounds)), not below 3000 nM; in assay [2] it was 500 to 1000 nM.

Take `CNCCC(OCc1cccc(NC(=O)c2ccccn2)c1)c1ccccc1` (centres unmarked) [Example 43, N-(3-((3-(methylamino)-1-phenylpropoxy)methyl)phenyl)picolinamide]: the Ki in assay [1] (Table 1) was not below 3000 nM; in assay [1] (Table 2 (dual compounds)), not below 3000 nM; in assay [2], 500 to 1000 nM.

As for `CNCCC(OCc1cccc(NC(=O)c2ccccc2)c1)c1cccs1` (centres unmarked) [Example 46, N-(3-((3-(methylamino)-1-(thiophen-2-yl)propoxy)methyl)phenyl)benzamide], the Ki was not below 3000 nM in assay [1] (Table 1), not below 3000 nM in assay [1] (Table 2 (dual compounds)) and 500 to 1000 nM in assay [2].

`CNCCC(OCc1cccc(NC(=O)c2ccccc2F)c1)c1cccs1` (centres unmarked) [Example 48, 2-Fluoro-N-(3-((3-(methylamino)-1-(thiophen-2-yl)propoxy)methyl)phenyl)benzamide]: the figures for the Ki in assay [1] (Table 1), in assay [1] (Table 2 (dual compounds)) and in assay [2] were not below 3000 nM, not below 3000 nM and 500 to 1000 nM, respectively.

As to `CCNc1ncc(C(=O)Nc2cccc(OC(CCNC)c3ccccc3)c2)c(N2CCCC2)n1` (centres unmarked) [Example 50, 2-(Ethylamino)-N-(3-(3-(methylamino)-1-phenylpropoxy)phenyl)-4-(pyrrolidin-1-yl)pyrimidine-5-carboxamide], the Ki in assay [1] (Table 1) is not below 3000 nM; in assay [1] (Table 2 (dual compounds)), not below 3000 nM; in assay [2] it was 500 to 1000 nM.

`CNCCC(OCc1cccc(Nc2ccccc2)c1)c1ccccc1` (centres unmarked) [Example 58, 3-((3-(Methylamino)-1-phenylpropoxy)methyl)-N-phenylaniline]: the Ki is not below 3000 nM in assay [1] (Table 1), not below 3000 nM in assay [1] (Table 2 (dual compounds)) and 100 to 500 nM in assay [2].

For the compound `CNCCC(OCc1cccc(Nc2ncccn2)c1)c1ccccc1` (centres unmarked) [Example 59, N-(3-((3-(methylamino)-1-phenylpropoxy)methyl)phenyl)pyrimidin-2-amine], in assay [1] (Table 1), the Ki was not below 3000 nM.

In the case of `CCNc1ncc(C(=O)N(C)c2cccc(OC(CCNC)c3ccccc3)c2)cn1` (centres unmarked) [Example 60, 2-(Ethylamino)-N-methyl-N-(3-(3-(methylamino)-1-phenylpropoxy)phenyl)pyrimidine-5-carboxamide], the Ki in assay [1] (Table 1) was not below 3000 nM.

In the case of `CNCCC(OCc1cccc(N(C(C)=O)c2ccccc2)c1)c1ccccc1` (centres unmarked) [Example 61, N-(3-((3-(methylamino)-1-phenylpropoxy)methyl)phenyl)-N-phenylacetamide], the Ki in assay [1] (Table 1) is not below 3000 nM.

With `CNCCC(Oc1cccc(N(C)C(C)=O)c1)c1cccs1` (centres unmarked) [Example 62, N-methyl-N-(3-(3-(methylamino)-1-(thiophen-2-yl)propoxy)phenyl)acetamide], in assay [1] (Table 1), the Ki was not below 3000 nM.

Turning to `CNCCC(Oc1cccc(N(C)C(=O)c2ccccc2)c1)c1cccs1` (centres unmarked) [Example 63, N-methyl-N-(3-(3-(methylamino)-1-(thiophen-2-yl)propoxy)phenyl)benzamide], the Ki in assay [1] (Table 1) was not below 3000 nM.

As for `CCCC(=O)N(C)c1cccc(OC(CCNC)c2cccs2)c1` (centres unmarked) [Example 64, N-methyl-N-(3-(3-(methylamino)-1-(thiophen-2-yl)propoxy)phenyl)butyramide], the Ki in assay [1] (Table 1) was not below 3000 nM.

Regarding `CNCCC(Oc1cccc(N(C)C(=O)c2cccnc2)c1)c1cccs1` (centres unmarked) [Example 65, N-methyl-N-(3-(3-(methylamino)-1-(thiophen-2-yl)propoxy)phenyl)nicotinamide], the Ki in assay [1] (Table 1) was not below 3000 nM.

As for `CNCCC(Oc1cccc(C(=O)Nc2ccccc2)c1)c1cccs1` (centres unmarked) [Example 66, 3-(3-(Methylamino)-1-(thiophen-2-yl)propoxy)-N-phenylbenzamide], in assay [1] (Table 1), the Ki lay within 500 to 3000 nM.

Consider `CNCCC(Oc1cccc(C(=O)N(C)c2ccccc2)c1)c1cccs1` (centres unmarked) [Example 67, N-methyl-3-(3-(methylamino)-1-(thiophen-2-yl)propoxy)-N-phenylbenzamide], for which the Ki in assay [1] (Table 1) was not below 3000 nM.

`CNCCC(Oc1cccc(C(=O)N(C)c2cccnc2)c1)c1ccccc1` (centres unmarked) [Example 68, N-methyl-3-(3-(methylamino)-1-phenylpropoxy)-N-(pyridin-3-yl)benzamide]: the Ki in assay [1] (Table 1) is not below 3000 nM.

`CNCCC(Oc1cccc(C(=O)N(C)c2ccccc2)c1)c1ccccc1` (centres unmarked) [Example 69, N-methyl-3-(3-(methylamino)-1-phenylpropoxy)-N-phenylbenzamide]: the Ki in assay [1] (Table 1) is not below 3000 nM.

Regarding `CNCCC(Oc1ccc(CN(C)Cc2ccccc2)c(F)c1)c1cccs1` (centres unmarked) [Example 70, 3-(4-((Benzyl(methyl)amino)methyl)-3-fluorophenoxy)-N-methyl-3-(thiophen-2-yl)propan-1-amine], the Ki was not below 3000 nM in assay [1] (Table 1), not below 3000 nM in assay [1] (Table 2 (dual compounds)) and 100 to 500 nM in assay [2].

The values are drawn from US11111220B2, “Propanamine derivatives for treating pain and pain related conditions” (ESTEVE PHARMACEUTICALS, S.A., priority 2017, dated 2021).
